Results reported in paper PMC12691742, “Anti-Cancer Outcome of Glucocorticoid Receptor Transrepression by Synephrine Derivatives in Hematological Malignancies” (International Journal of Molecular Sciences, 2025).
Entries after “also recorded” stand apart in the source; their conditions may differ.

What was measured:
[1] = tested on: GR phosphorylated by Ser211 in K562 and Granta cells; experiment: Western blot of nuclear phospho-GR (Ser211); assay type: cell-based; conditions: 10 h; Dex 10 µM, 4S-C2 50 µM, 8S-E3 50 µM, 10S-E2 15 µM, 13S-G2 25 µM
Procedure: Figure 3 Effects of synephrine derivatives on GR transactivation in Granta lymphoma and K562 leukemia cells. (A) Q-PCR analysis of FKBP51, GILZ, and DDIT4 mRNA expression in K562 and Granta cells. […] The Q-PCR results were normalized to the expression of the housekeeping gene RPL27 and are presented as fold changes compared to the control. The mean ± SD was calculated for three individual samples/condition (n = 3). Statistically significant differences compared to the control: * p < 0.05, ** p < 0.01. (B) The levels of the nuclear fraction of phospho-GR (Ser211) were determined using Western blot analysis (n = 3; characteristic images are presented in the figure). Histone H3 was used as a loading control.
Western blot analysis was performed as previously described. Proteins were resolved using SDS-PAGE. Membranes were blocked with 5% nonfat milk solution and then incubated with primary antibodies against phosphorylated GR (pGR, Ser211) (“Santa Cruz Biotechnology”, Santa Cruz, CA, USA) overnight at 4 °C. To verify equal protein loading and adequate transfer, the membranes were probed with Histone H3 antibodies (“Cell Signaling”, Boston, MA, USA). Goat anti-rabbit IgGs (“Jackson Immuno Research”, West Grove, PA, USA) were used as secondary antibodies. Signals were detected using ECL reagent and an ImageQuant LAS4000 system (“GE HealthCare”, Chicago, IL, USA). ImageJ 1.54h software was used for densitometry. The experiments were performed in triplicate.
7 K562, pGR nuclear 5 Granta, pGR nuclear
Supplementary Figure S 22. Quantification of Western blot analysis. K562 and Granta cells […]
μM) and 13S-G2 (25 μ M) for 10 h. Quantification of Western blot anal ysis of p- GR protein levels was done usin g Im a ge J f ree so ftwar e. Statisticall y significant diff eren ces as compared to control: […]

GR = molecular target: T1, GR (Homo sapiens, UniProt P04150); experiment: GR radioligand binding assay, competition with [3H]Dex in K562 cells
T1 construct: endogenous in cells; host or cells: K562
T1 sequence (P04150 1-777): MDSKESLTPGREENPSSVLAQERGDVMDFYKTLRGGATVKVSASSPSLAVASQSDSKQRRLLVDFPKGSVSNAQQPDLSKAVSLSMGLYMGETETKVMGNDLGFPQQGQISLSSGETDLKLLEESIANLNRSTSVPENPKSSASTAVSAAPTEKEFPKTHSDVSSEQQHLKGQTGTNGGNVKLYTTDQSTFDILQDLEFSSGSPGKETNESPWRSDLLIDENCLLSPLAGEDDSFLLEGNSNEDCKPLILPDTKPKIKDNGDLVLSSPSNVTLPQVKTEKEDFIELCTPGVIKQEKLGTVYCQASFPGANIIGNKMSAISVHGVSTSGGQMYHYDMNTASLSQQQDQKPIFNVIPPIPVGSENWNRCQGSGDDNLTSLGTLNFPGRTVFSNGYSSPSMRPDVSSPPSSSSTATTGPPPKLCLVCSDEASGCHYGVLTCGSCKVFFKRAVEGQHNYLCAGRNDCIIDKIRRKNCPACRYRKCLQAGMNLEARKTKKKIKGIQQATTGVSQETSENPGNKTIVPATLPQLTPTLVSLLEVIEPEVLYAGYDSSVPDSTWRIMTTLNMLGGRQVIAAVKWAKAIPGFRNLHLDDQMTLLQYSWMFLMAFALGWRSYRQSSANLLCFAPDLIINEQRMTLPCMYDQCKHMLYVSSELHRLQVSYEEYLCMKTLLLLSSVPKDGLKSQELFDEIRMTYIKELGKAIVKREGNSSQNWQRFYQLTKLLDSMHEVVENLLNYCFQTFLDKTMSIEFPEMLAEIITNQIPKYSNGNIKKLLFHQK
Procedure: (A,B). […] The stability of the complex was simulated using molecular dynamics in the GROMACS program. (C) GR binding affinity was estimated using a radioligand binding assay. […] Cell lysate radioactivity was measured using a RackBeta 1215 LC (LKB Wallac, Turku, Finland) spectrometer for 4 min. […] The experiments were performed in triplicate (n = 3).
After 90 min of incubation, the cells were washed twice by centrifugation in cold serum-free medium (1500 rpm, 5 min). The cells were then lysed with RIPA buffer (50 mM Tris (pH 8.0), 150 mM NaCl, 1 mM ethylenediaminetetraacetic acid, 0.1% sodium dodecyl sulfate, 0.5% sodium deoxycholate, 1% triton-X100, 10% glycerin, and protease inhibitor) for 20 min. Lysates were transferred to scintillation liquid, and radioactivity was measured using a RackBeta 1215 LC spectrometer for 4 min. […] IC50 was determined using GraphPad Prism software, Ver.7.0. […] “Top” meant the highest value in dpm and was equal to 100%, while the “bottom” was considered as the lowest value (0%). […] The IC50 values for each ligand were determined by plotting these curves. The experiments were performed in triplicate.

BALB/c female mice = experiment: Glucocorticoid-induced osteoporosis model: bone and skin morphometry, body weight; assay type: in vivo; conditions: Dex 20 mg/kg
Excerpt: (A) H&E bone staining and quantification of cortical bone thickness. (B) Q-PCR analysis of Rankl, Mmp9, Tsc2, Trap, and Bglap mRNA expression in bone tissue. […] (C) H&E skin staining and quantification of dermal adipose thickness (50 images per treatment group of 10 animals). Statistically significant differences compared to the control: * p < 0.05, ** p < 0.01.
The protocol for the experiment was approved by the local N.N. Blokhin National Medical Research Center Ethics Committee and corresponded to the guidelines for the welfare and use of animals in cancer research adopted by The United Kingdom Coordinating Committee on Cancer Prevention Research. […] Body weight was recorded twice a week for toxicity control.
Bone and skin samples from the GIOP experiment were fixed in formaldehyde and embedded in paraffin, and sections were stained with hematoxylin and eosin. After formaldehyde fixation, the bone samples were decalcified in decalcification buffer (0.5 M EDTA, 0.7 mM NaOH, pH7.0) for 14 days, washed twice with PBS, and further processed according to the standard histology protocol. The dermal adipose and bone thickness were quantified in sections stained with hematoxylin and eosin. At least five individual fields per slide of each sample/treatment (at least 50 images/treatment group) were analyzed using Axioplan2 microscope software (“Carl Zeiss”, Jena, Germany). The dermal adipose or bone thickness in treated animals is presented as a percentage of the control animals.

[2] = i.p. every 24 h for 5 weeks, 10S-E2 10 mg/kg

CCCCCCNCC(O)c1ccc(OCc2ccccc2)cc1 (stereo not drawn) [10S-E2, 1-[4-(benzyloxy)phenyl]-2-(hexylamino)ethanol]
GR phosphorylation level at Ser211 [1]: did not affect the phosphorylation
IC50 (GR): 560 nM
animal body weight vs control (BALB/c female mice; GIOP study, 10S-E2 10 mg/kg i.p. every 24 h for 5 weeks): no statisticall y si gnificant differences; also recorded: similar
loss of cortical bone thickness (BALB/c female mice; [2]): did not cause any loss
reduction of dermal adipose tissue / skin atrophy (BALB/c female mice; [2]): preserved the skin architecture
